Data from patent publication US20260297087A1, “Pyridoimidazolone Compounds, Preparation Thereof and Therapeutic Uses Thereof” (Sanofi, priority 2023, published 2026).

Columns and labels:
ERK5 = molecular target: T1, ERK5 (Homo sapiens, UniProt Q13164); assay: Inhibition of Cellular ERK5 Activity (cell-based assay, MEF2 luciferase reporter in SN12C cells); conditions: renal cancer cell line SN12C, doxycycline-induced MEKSDD, mean where repeated
T1 construct: MEF2-luciferase reporter
Procedure: (§1) Two assays were performed to assess the ERK5 inhibitory activity of compounds of the Examples, a cell-based assay and a cell-free biochemical assay. Where repeat measurements were taken, the value reported is a mean average.
The renal cancer cell line SN12C was transduced by a lentivirus pGreenFire1 MEF2 EF1 Neo (ref TR030VA-N) from SBI using standard infection protocol. pGreenFire1 MEF2 EF1 Neo allows the expression of luciferase gene under the control of minimal promoter with MEF2 transcriptional response elements. Cells harboring the reporter construct were selected by geneticin treatment. The selected cells were then transposed by a piggyback based plasmid pCM4007 allowing the expression of constitutively activated MEKSDD under control of TREG3 promoter, a doxycycline regulated promoter. Transposed cells were selected by puromycin treatment. Upon doxycycline treatment (1p g/ml) MEKSDD was expressed. MEKSDD activates ERK5 that phosphorylates MEF2C protein. Activated MEF2C protein can bind to its transcriptional response elements. Then the luciferase is expressed. In a 96-well plate (96F nuncleon refl37101 thermofisher), 50,000 cells were inoculated in 142.5 μl of RPMI medium containing 10% fetal calf serum, 1% glutamine, and 1 μg/ml doxycycline. After 24 hours, compounds were added in 7.5 μl culture medium (with 2% DMSO to give a final concentration of 0.1%) in order to obtain the desired concentration (0.3-1000 nM). The luciferase activity was measured using the Kit Bright Glo Luminescent Cell Assay Cat E2610 (Promega) according to the manufacturer's protocol. Luminescence was determined using 0.2 second reading/well using a Tecan SPARK. IC50 values were calculated using XLFIT5 for Microsoft Excel using method 205. The IC50 values represent the concentration of compound which inhibits the measurable luminescence signal by 50% as compared to DMSO-treated control cells.

[1] = molecular target: T2, ERK5 (activated catalytic domain) (Homo sapiens, UniProt Q13164); assay: Cell-Free Assay of ERK5 Inhibition (Time-Resolved FRET, 4EBP1 peptide phosphorylation); format: biochemical; conditions: ERK5 catalytic domain 4 nM, 1 mM ATP, 1 μM biotinylated 4EBP1 peptide, 30 min at 37° C.; mean where repeated; read-out: Cell-free assay (IC50 in nM)
T2 construct: purchased CarnaBiosciences 04-146
T2 sequence (Q13164 55-347 limits assumed): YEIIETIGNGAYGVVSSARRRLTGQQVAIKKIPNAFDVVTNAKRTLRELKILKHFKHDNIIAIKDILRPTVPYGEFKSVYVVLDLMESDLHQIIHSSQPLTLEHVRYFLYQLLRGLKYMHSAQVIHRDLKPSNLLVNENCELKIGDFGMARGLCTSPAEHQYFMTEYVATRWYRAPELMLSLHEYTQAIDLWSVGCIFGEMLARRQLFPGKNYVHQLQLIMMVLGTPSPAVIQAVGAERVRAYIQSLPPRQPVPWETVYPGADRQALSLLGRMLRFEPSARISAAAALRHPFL
Procedure: as §1
An assay was performed to measure the capacity of each compound to inhibit ERK5 enzymatic activity. Compound potency was evaluated by Time-Resolved Forster Resonance Energy Transfer (FRET system). The activated catalytic domain of protein ERK5 (CarnaBiosciences #04-146) was mixed at 4 nM with varying concentrations of compound and incubated for 30 minutes at room temperature. A mixture of 1 mM ATP and 1 μM biotinylated synthetic peptide was added (Biosyntan GmbH). This synthetic peptide represents amino acids 30-52 of Eukaryotic translation initiation factor 4E-binding protein 1 (see, e.g., the sequence under accession No. NP_004086.1) biotinylated at the N-terminus. After 30 minutes at 37° C., the peptide phosphorylation by ERK5 was measured by addition of FRET reagents consisting of 12.5 μg/ml Streptavidin-XL665, 1 nM Anti-P-4EBP1 antibody and 300 ng/ml Anti-rabbit-K antibody. Following 90 minutes at room temperature fluorescent signals were read on the Pherastar FSX multimod detector from BMG Labtech (Exc° 340 nm, Em1 620 nm, Em2 665 nm). The IC50 values represent the concentration of compound which inhibits the measurable fluorescence signal by 50% as compared to the DMSO only control.

T1 sequence (Q13164 whole entry): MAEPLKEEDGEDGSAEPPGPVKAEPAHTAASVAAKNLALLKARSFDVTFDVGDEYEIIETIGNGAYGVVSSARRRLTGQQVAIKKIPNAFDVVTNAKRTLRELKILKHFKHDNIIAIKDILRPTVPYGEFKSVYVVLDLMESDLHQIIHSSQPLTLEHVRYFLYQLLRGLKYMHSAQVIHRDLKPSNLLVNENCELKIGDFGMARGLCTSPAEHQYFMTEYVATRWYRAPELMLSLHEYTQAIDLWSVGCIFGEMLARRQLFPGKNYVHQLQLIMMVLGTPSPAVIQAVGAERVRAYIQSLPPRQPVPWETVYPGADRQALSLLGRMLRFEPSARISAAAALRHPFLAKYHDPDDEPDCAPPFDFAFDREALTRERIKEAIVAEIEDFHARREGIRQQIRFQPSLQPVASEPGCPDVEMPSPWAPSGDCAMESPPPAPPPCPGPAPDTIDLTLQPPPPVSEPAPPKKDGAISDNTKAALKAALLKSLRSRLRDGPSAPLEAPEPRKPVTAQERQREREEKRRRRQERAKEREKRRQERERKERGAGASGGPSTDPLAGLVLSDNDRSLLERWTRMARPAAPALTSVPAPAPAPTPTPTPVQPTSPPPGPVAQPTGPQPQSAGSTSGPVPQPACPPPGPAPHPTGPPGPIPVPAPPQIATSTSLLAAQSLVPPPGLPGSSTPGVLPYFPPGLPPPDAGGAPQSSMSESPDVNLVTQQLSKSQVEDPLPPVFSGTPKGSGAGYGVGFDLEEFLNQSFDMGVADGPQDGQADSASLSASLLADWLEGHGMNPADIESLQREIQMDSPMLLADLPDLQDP

SMILES | IC50 (ERK5) [nM] | IC50 [1] [nM]
O=C(c1ccc(S(F)(F)(F)(F)F)cc1)N1CCC(n2c(=O)[nH]c3ncc(C4CCOCC4)cc32)CC1 [Example 19, 1-[1-[4-(Pentafluoro-λ^6-sulfanyl)benzoyl]-4-piperidyl]-6-tetrahydropyran-4-yl-3H-imidazo[4,5-b]pyridin-2-one] | 199 | 257
Cc1nc2[nH]c(=O)n(C3CCN(C(=O)c4ccc(OC(F)(F)F)cc4N)CC3)c2cc1C1CCOCC1 [Example 20, 1-[1-[2-amino-4-(trifluoromethoxy)benzoyl]-4-piperidyl]-5-methyl-6-tetrahydropyran-4-yl-3H-imidazo[4,5-b]pyridin-2-one] | 486 | 1100
Nc1cc(OC(F)(F)F)ccc1C(=O)N1CCC(n2c(=O)[nH]c3ncc(C4CC5(CC(F)C5)C4)cc32)CC1 (stereo not drawn) [Example 21, 1-[1-[2-amino-4-(trifluoromethoxy)benzoyl]-4-piperidyl]-6-(2-fluorospiro[3.3]heptan-6-yl)-3H-imidazo[4,5-b]pyridin-2-one] | 42 | 395
COCCc1cnc2[nH]c(=O)n(C3CCN(C(=O)c4ccc(OC(F)(F)F)cc4N)CC3)c2c1 [Example 24, 1-[1-[2-amino-4-(trifluoromethoxy)benzoyl]-4-piperidyl]-6-(2-methoxyethyl)-3H-imidazo[4,5-b]pyridin-2-one] | 67 | 502
CO[C@H]1CC[C@H](c2cnc3[nH]c(=O)n(C4CCN(C(=O)c5ccc(OC(F)(F)F)cc5)CC4)c3c2)CC1 [Example 26, trans-6-(4-methoxycyclohexyl)-1-[1-[4-(trifluoromethoxy)benzoyl]-4-piperidyl]-3H-imidazo[4,5-b]pyridin-2-one] | 118 | 235
CO[C@H]1CC[C@@H](c2cnc3[nH]c(=O)n(C4CCN(C(=O)c5ccc(OC(F)(F)F)cc5)CC4)c3c2)CC1 [Example 27, cis-6-(4-methoxycyclohexyl)-1-[1-[4-(trifluoromethoxy)benzoyl]-4-piperidyl]-3H-imidazo[4,5-b]pyridin-2-one] | 536 | 1180
Nc1cc(OC(F)(F)F)ccc1C(=O)N1CCC(n2c(=O)[nH]c3ncc(C4CCC4)cc32)CC1 [Example 29, 1-[1-[2-amino-4-(trifluoromethoxy)benzoyl]-4-piperidyl]-6-cyclobutyl-3H-imidazo[4,5-b]pyridin-2-one] | 213 | 420
Nc1cc(OC(F)(F)F)ccc1C(=O)N1CCC(n2c(=O)[nH]c3ncc(C45CC(C(F)(F)F)(C4)C5)cc32)CC1 [Example 30, 1-[1-[2-amino-4-(trifluoromethoxy)benzoyl]-4-piperidyl]-6-[3-(trifluoromethyl)-1-bicyclo[1.1.1]pentanyl]-3H-imidazo[4,5-b]pyridin-2-one] | 310 | 15300
Nc1cc(OC(F)(F)F)ccc1C(=O)N1CCC(n2c(=O)[nH]c3ncc(C45CCC(C4)C5)cc32)CC1 [Example 32, 1-[1-[2-amino-4-(trifluoromethoxy)benzoyl]-4-piperidyl]-6-(1-bicyclo[2.1.1]hexanyl)-3H-imidazo[4,5-b]pyridin-2-one] | 347 | 1140
Nc1cc(OC(F)(F)F)ccc1C(=O)N1CCC(n2c(=O)[nH]c3ncc(C45CC(C(F)F)(C4)C5)cc32)CC1 [Example 33, 1-[1-[2-amino-4-(trifluoromethoxy)benzoyl]-4-piperidyl]-6-[3-(difluoromethyl)-1-bicyclo[1.1.1]pentanyl]-3H-imidazo[4,5-b]pyridin-2-one] | 124 | 376
Nc1cc(OC(F)(F)F)ccc1C(=O)N1CCC(n2c(=O)[nH]c3ncc(C4CCC(F)(F)CC4)cc32)CC1 [Example 35, 1-[1-[2-amino-4-(trifluoromethoxy)benzoyl]-4-piperidyl]-6-(4,4-difluorocyclohexyl)-3H-imidazo[4,5-b]pyridin-2-one] | 205 | 695
Nc1cc(OC(F)(F)F)ccc1C(=O)N1CCC(n2c(=O)[nH]c3ncc(C4CCCCC4)cc32)CC1 [Example 36, 1-[1-[2-amino-4-(trifluoromethoxy)benzoyl]-4-piperidyl]-6-cyclohexyl-3H-imidazo[4,5-b]pyridin-2-one] | 285 | 888
Nc1cc(OC(F)(F)F)ccc1C(=O)N1CCC(n2c(=O)[nH]c3ncc(C4CC5CCC4C5)cc32)CC1 (stereo not drawn) [Example 37, 1-[1-[2-amino-4-(trifluoromethoxy)benzoyl]-4-piperidyl]-6-norbornan-2-yl-3H-imidazo[4,5-b]pyridin-2-one] | 167 | 681
Nc1cc(OC(F)(F)F)ccc1C(=O)N1CCC(n2c(=O)[nH]c3ncc(CC4CCOCC4)cc32)CC1 [Example 39, 1-[1-[2-amino-4-(trifluoromethoxy)benzoyl]-4-piperidyl]-6-(tetrahydropyran-4-ylmethyl)-3H-imidazo[4,5-b]pyridin-2-one] | 75 | 117
O=C(c1ccc(OC(F)(F)F)cc1)N1CCC(n2c(=O)[nH]c3ncc(C4CCOCC4)cc32)CC1 [Example 41, 6-tetrahydropyran-4-yl-1-[1-[4-(trifluoromethoxy)benzoyl]-4-piperidyl]-3H-imidazo[4,5-b]pyridin-2-one] | 152 | 557
O=C(c1ccc(OC(F)(F)F)cc1)N1CCC(n2c(=O)[nH]c3ncc(CC4COC4)cc32)CC1 [Example 42, 6-(oxetan-3-ylmethyl)-1-[1-[4-(trifluoromethoxy)benzoyl]-4-piperidyl]-3H-imidazo[4,5-b]pyridin-2-one] | 136 | 354
CO[C@H]1CC[C@H](c2cnc3[nH]c(=O)n(C4CCN(C(=O)c5ccc(OC(F)(F)F)cc5N)CC4)c3c2)CC1 [Example 45, trans-1-[1-[2-amino-4-(trifluoromethoxy)benzoyl]-4-piperidyl]-6-(4-methoxycyclohexyl)-3H-imidazo[4,5-b]pyridin-2-one] | 29 | 107
CO[C@H]1CC[C@@H](c2cnc3[nH]c(=O)n(C4CCN(C(=O)c5ccc(OC(F)(F)F)cc5N)CC4)c3c2)CC1 [Example 46, cis-1-[1-[2-amino-4-(trifluoromethoxy)benzoyl]-4-piperidyl]-6-(4-methoxycyclohexyl)-3H-imidazo[4,5-b]pyridin-2-one] | 199 | 643
Nc1cc(OC(F)(F)F)ccc1C(=O)N1CCC(n2c(=O)[nH]c3ncc([C@H]4CC[C@H](O)CC4)cc32)CC1 [Example 51, trans-1-[1-[2-amino-4-(trifluoromethoxy)benzoyl]-4-piperidyl]-6-(4-hydroxycyclohexyl)-3H-imidazo[4,5-b]pyridin-2-one] | 205 | 52
Nc1cc(OC(F)(F)F)ccc1C(=O)N1CCC(n2c(=O)[nH]c3ncc([C@H]4CC[C@@H](O)CC4)cc32)CC1 [Example 52, cis-1-[1-[2-amino-4-(trifluoromethoxy)benzoyl]-4-piperidyl]-6-(4-hydroxycyclohexyl)-3H-imidazo[4,5-b]pyridin-2-one] | 244 | 97
Nc1cc(OC(F)(F)F)ccc1C(=O)N1CCC(n2c(=O)[nH]c3ncc(C4CCN(CC(F)(F)F)CC4)cc32)CC1 [Example 53, 1-[1-[2-amino-4-(trifluoromethoxy)benzoyl]-4-piperidyl]-6-[1-(2,2,2-trifluoroethyl)-4-piperidyl]-3H-imidazo[4,5-b]pyridin-2-one] | 184 | 405
